Tests used:
[1] = test system: Human Keratinocyte monolayers; experiment: Intracellular cleaved form of PARP (determination of undergoing cell death) by immunoblotting; type: cell-based; settings: 16 h after treatment, cell lysate
Experimental: (§1) Human Keratinocyte monolayers were UVB-irradiated at different doses (200, 400, and 800 J/m^2 respectively), treated with 2 μM Doxorubicin (Doxo) and 80 μM Etoposide (VP-16), or left untreated. At 16 h after treatment, the supernatant was collected and separated for determination of extracellular IFI16, while the remaining cells were lysed for determination of the intracellular cleaved form of PARP (determination of undergoing cell death). Collected supernatants were concentrated with TCA 25% as described in Example 4. An equal amount of total cellular protein per sample and an equal volume of concentrated supernatants were fractionated on SDS-PAGE (7.5% of NEXT GEL Amresco, OH, USA) and transferred to a nitrocellulose membrane (Biorad, CA, USA). […]
As control of the undergoing cell death induced by the treatment with UVB-irradiation and Doxo or VP-16, also the intracellular PARP cleavage was determined in the exposed keratinocyte. […]
(§2) Migrated proteins were transferred to nitrocellulose. The membranes were blocked in TBS/0.05% Tween20/5% BSA and extracellular IFI16 was detected by incubation of the membrane bearing surnatants samples with anti-IFI16 mouse monoclonal antibody (clone 1G7, Santa Cruz, Calif., USA). The intracellular cleaved form of PARP was detected by incubation of the membrane bearing cell extract samples by rabbit anti-PARP cleaved antibody (GTX24830, GeneTex, CA, USA). […]

[2] = test system: Human Keratinocyte monolayers; experiment: Western blot analysis of extracellular IFI16 in supernatants of cells undergoing cell death; type: cell-based; settings: 16 h after treatment, TCA-concentrated supernatant, immunoblotting
Experimental: as §1, with “4.” for “4. An equal amount of total cellular protein per sample and an equal volume of concentrated supernatants were fractionated on SDS-PAGE (7.5% of NEXT GEL Amresco, OH, USA) and transferred to a nitrocellulose membrane (Biorad, CA, USA).”
Supernatants of human primary keratinocytes cultured in serum-free medium (Epilife, Cascade Biologics, USA) were subjected to precipitation with trichloroacetic acid (TCA). Precipitated protein were analyzed by immunoblotting. […]
as §2

COc1cccc2c1C(=O)c1c(O)c3c(c(O)c1C2=O)C[C@@](O)(C(=O)CO)C[C@@H]3O[C@H]1C[C@H](N)[C@H](O)[C@H](C)O1 [Doxorubicin]
cell death as demonstrated by PARP cleavage ([1]; 2 μM Doxorubicin): chemically-induced cell death | presence of extracellular IFI16 in supernatants ([2]; 2 μM Doxorubicin): not observed

COc1cc([C@@H]2c3cc4c(cc3[C@@H](O[C@@H]3O[C@@H]5CO[C@@H](C)O[C@H]5[C@H](O)[C@H]3O)[C@H]3COC(=O)[C@H]23)OCO4)cc(OC)c1O [Etoposide]
cell death as demonstrated by PARP cleavage ([1]; 80 μM Etoposide): chemically-induced cell death | presence of extracellular IFI16 in supernatants ([2]; 80 μM Etoposide): not observed

From patent US20110300529A1, “DETECTION OF IFI16 IN BODY FLUIDS” (NoToPharm srl, priority 2008, published 2011)
